Results from ChEMBL document CHEMBL5518250, “Targeting KRAS Diversity: Covalent Modulation of G12X and Beyond in Cancer Therapy” (J Med Chem, 2024).

Assay: Binding affinity to human recombinant His-tagged KRAS G12C/C118S mutant (1 to 169 residues) expressed in Escherichia coli assessed as inhibition constant by fluorescence based analysis

In the case of `C=CC(=O)N1CCN(c2nc(=O)n(-c3c(C)ccnc3C(C)C)c3nc(-c4c(O)cccc4F)c(F)cc23)[C@@H](C)C1` [SOTORASIB], the Ki is reported as 86 µM.
